Where “and” joins values, the source holds several entries; their conditions need not be identical. Equal values may be shown once. Calls of active or inactive are those of the source.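 How the source made its calls: active means compounds raising the signal whose fitted half-maximal concentration is at or below their top tested dose (cut at about 25 µM in these data); inconclusive means flat fit at 30 to 70% activity, or a poor fit; inactive means the rest.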
System: INS-1E rat beta cells, no cytokines, CellTiter-Glo ATP, 48 h
Assay: ATP level change in INS-1E without cytokines, dose response, counter-screen for beta-cell apoptosis protection project, INS-1E rat cells, ATP luminescence, cherry pick (AID 463229)

**Q.** How did the AC50 turn out when `COc1cccc(COc2cc3ccccc3nc2C)c1` was run?
**A.** 3.51 µM

**Q.** Which AC50 does the source give for `CCCCCc1cc(=O)oc2c(C(CCN3CCCCC3)c3ccc4c(c3)OCO4)c(OC)cc(OC)c12` (configuration not stated) here?
**A.** 7.89 µM

**Q.** Which AC50 does the source give for `Cc1ccc(NC2=C/C(=N/S(=O)(=O)c3cccs3)c3ccccc3C2=O)cc1` here?
**A.** 2.37 µM

**Q.** For `Cc1cc2nc(-c3ccc(NC(=O)c4cccnc4)cc3)oc2cc1C`, which AC50 is on record?
**A.** 9.26 µM

**Q.** `O=C(NNC(=O)c1ccccc1O)c1ccc(Cl)c(S(=O)(=O)N2CCc3ccccc32)c1` was tested. Which AC50 did it give?
**A.** 7.82 µM

**Q.** How did the AC50 turn out when `CS(=O)(=O)c1ncc(Cl)c(C(=O)Nc2ccc(OC(F)F)cc2)n1` was run?
**A.** 11.6 µM

**Q.** With `CCN(CC)S(=O)(=O)c1ccc(N/N=C/c2cc(OC)ccc2O)nc1` as the compound, how does the AC50 read?
**A.** 4.24 µM

**Q.** Which AC50 does the source give for `O=C(/C(=C/c1ccc(Cl)cc1)c1nc2ccccc2[nH]1)c1cccs1` here?
**A.** 4.4 µM

**Q.** With `COc1cccc(/C=N/Nc2nc(Nc3ccccc3)nc(-n3nc(C)cc3C)n2)c1O` as the compound, how does the AC50 read?
**A.** 12.3 µM

**Q.** With `Cc1cc(-c2ccccc2)n(-c2cc(N/N=C/c3ccccc3O)ncn2)n1` as the compound, how does the AC50 read?
**A.** 7.17 µM

**Q.** Which AC50 does the source give for `Cn1c(=O)[nH]c(=O)c2c1nc([N+](=O)[O-])n2Cc1ccccc1` here?
**A.** 6.67 µM

**Q.** How did the AC50 turn out when `Cc1cc(C(C)(C)C)cc(C)c1Cn1c2[n+](c3ccc(C(F)(F)F)cc31)CCCCC2` was run?
**A.** 4.19 µM

**Q.** `Oc1ccc(N=Nc2ccc3c(c2)OCCO3)c2ncccc12` was tested. Which AC50 did it give?
**A.** 3.75 µM

**Q.** For `CC(C)C[C@H]1CN=C(Nc2ccccc2)N1CCc1ccc(F)cc1`, which AC50 is on record?
**A.** > 26 µM (inactive)

**Q.** With `CC1=NNC(=O)/C1=C\c1cn(-c2ccccc2)nc1-c1cccs1` as the compound, how does the AC50 read?
**A.** 7.54 µM

**Q.** With `CCN1CCN(Cc2ccc(NC(=O)c3ccc(C)c(NC(=O)C(=O)c4c[nH]c5ccccc45)c3)cc2C(F)(F)F)CC1` as the compound, how does the AC50 read?
**A.** 13.8 µM and 7.23 µM

**Q.** Which AC50 does the source give for `CCC(C)Sc1cccc(-c2nc3ccc(C)cn3c2NCc2ccccc2)c1` (configuration not stated) here?
**A.** 9.3 µM

**Q.** For `Nc1c(C(=O)Nc2ccc(S(=O)(=O)N3CCCC3)cc2)sc2nc3cc4c(cc3cc12)CCC4`, which AC50 is on record?
**A.** 4.63 µM

**Q.** `c1ccc2c(CNC3CCCCC3)c[nH]c2c1` was tested. Which AC50 did it give?
**A.** 6.79 µM

**Q.** `CC(=O)NC(c1cccs1)c1cc([N+](=O)[O-])c2cccnc2c1O` (configuration not stated) was tested. Which AC50 did it give?
**A.** 10.9 µM

**Q.** Which AC50 does the source give for `CC(C)Oc1ccc(C(CCN)C2CCCCC2)cc1` (configuration not stated) here?
**A.** 13.3 µM

**Q.** With `Cc1cccc(/C=N/NC(=O)c2ccc3c(c2)OCCO3)c1O` as the compound, how does the AC50 read?
**A.** 7.38 µM

**Q.** For `COc1ccccc1/C=C1\SC(=O)N(CCC(=O)NCCCn2ccnc2)C1=O`, which AC50 is on record?
**A.** 8.2 µM

**Q.** For `Oc1c(CN2CCN(c3ccccc3)CC2)cc(Br)c2cccnc12`, which AC50 is on record?
**A.** 5.87 µM

**Q.** With `Cc1cc(/C=C2/SC(=S)N(c3ccc([N+](=O)[O-])cc3)C2=O)c(C)n1-c1cccnc1` as the compound, how does the AC50 read?
**A.** 0.912 µM

**Q.** How did the AC50 turn out when `COc1ccc(-c2cn(-c3ccc(Cl)cc3)c3[n+]2CCCCC3)cc1` was run?
**A.** 2 µM

**Q.** For `CCN(CC)S(=O)(=O)c1cccc(NC(=O)CNc2cccc(S(=O)(=O)N3CCCC3)c2)c1`, which AC50 is on record?
**A.** 6.2 µM

**Q.** For `CCN1/C(=C/C(C)=C/c2sc3ccccc3[n+]2CC)Sc2ccccc21`, which AC50 is on record?
**A.** < 0.195 µM

**Q.** How did the AC50 turn out when `Cc1ccccc1N=Nc1ccc(O)c2ncccc12` was run?
**A.** 4.41 µM

**Q.** `Cn1ncnc2c(=O)n(C)c(=O)nc1-2` was tested. Which AC50 did it give?
**A.** 1.48 µM

**Q.** For `CCc1ccc(OCC(=O)NC(NC(=S)Nc2ccc(C)cc2C)C(Cl)(Cl)Cl)cc1` (configuration not stated), which AC50 is on record?
**A.** 11.2 µM

**Q.** For `O=C(Nc1ccc(Cl)cc1)Nc1ccc(Cl)c(Cl)c1`, which AC50 is on record?
**A.** 6.98 µM

**Q.** How did the AC50 turn out when `Cc1occc1C(=O)N/N=C/c1c(O)ccc2ccccc12` was run?
**A.** 7.95 µM

**Q.** Which AC50 does the source give for `O=C(CNc1cccc2ccccc12)N/N=C/c1ccc([N+](=O)[O-])o1` here?
**A.** 11.5 µM

**Q.** How did the AC50 turn out when `CCOc1ccc(-c2c[n+]3c(n2-c2ccccc2)CCCCC3)cc1` was run?
**A.** 0.982 µM

**Q.** For `COCCCNC(=O)Cn1nnc(-c2ccc(NC(=O)c3cccnc3)cc2)n1`, which AC50 is on record?
**A.** 5.3 µM

**Q.** `O=C(CN(Cc1ccco1)Cc1ccco1)Nc1cc(S(=O)(=O)N2CCCCC2)ccc1Cl` was tested. Which AC50 did it give?
**A.** 7.47 µM

**Q.** Which AC50 does the source give for `Oc1c(C(Nc2ccccn2)c2cccnc2)cc(Cl)c2cccnc12` (configuration not stated) here?
**A.** 7.48 µM

**Q.** Which AC50 does the source give for `Cc1cc(N2CCN(C)CC2)ccc1NC(=O)c1c2c(nc3ccccc13)CCN(Cc1ccccc1)C2` here?
**A.** 8 µM

**Q.** With `COc1ccccc1OCCCCOc1ccccc1C(C)=O` as the compound, how does the AC50 read?
**A.** 23 µM

**Q.** How did the AC50 turn out when `O=S(=O)([N-]c1nc2ccccc2nc1-[n+]1ccc(Cc2ccccc2)cc1)c1ccc(Br)s1` was run?
**A.** 12.9 µM

**Q.** Which AC50 does the source give for `CCOC(=O)/C(=C\c1ccc([N+](=O)[O-])cc1)C(=O)c1cc(C(C)=O)c(Nc2ccccc2)s1` here?
**A.** 2.41 µM

**Q.** With `O=C1C=C(c2ccc(F)cc2OCc2ccccc2)C[C@@H](c2ccc(Cl)cc2)C1` as the compound, how does the AC50 read?
**A.** 5.46 µM

**Q.** `CC(C)(C)c1cc(C=C(C#N)C#N)cc(C(C)(C)C)c1O` was tested. Which AC50 did it give?
**A.** 0.984 µM

**Q.** For `O=C1C=C(Nc2ccc(F)cc2)c2ccccc2C1=O`, which AC50 is on record?
**A.** 7.19 µM

**Q.** With `O=C(NCCc1ccccc1)[C@@H]1CC=C[C@@H]2CCN(Cc3ccc(Cl)c(Cl)c3)C(=O)[C@@H]21` as the compound, how does the AC50 read?
**A.** 13.2 µM

**Q.** Which AC50 does the source give for `N=c1c2ccccc2nc2n1CCCCCCCCCCC2` here?
**A.** 13.9 µM

**Q.** `Cc1cc(NC2CCCCC2)nc(NCc2ccccc2)n1` was tested. Which AC50 did it give?
**A.** 3.71 µM

**Q.** `O=C(CNC(=O)c1ccccc1O)N/N=C/c1cc(Br)ccc1OC(=O)/C=C/c1ccco1` was tested. Which AC50 did it give?
**A.** 10.7 µM

**Q.** For `O=[N+]([O-])c1ccc(S(=O)(=O)c2ccccc2)nc1`, which AC50 is on record?
**A.** 10.6 µM

**Q.** For `CC1=C/C(=N\OS(=O)(=O)c2ccccc2)C(C(C)C)=CC1=O`, which AC50 is on record?
**A.** 6.84 µM

**Q.** How did the AC50 turn out when `O=C(OCn1ncc(Br)c(Br)c1=O)c1ccccc1Cl` was run?
**A.** 4.55 µM

**Q.** With `CC(=O)c1c(C)[nH]c(C(=O)OCC(=O)Nc2ccc(Cl)cc2[N+](=O)[O-])c1C` as the compound, how does the AC50 read?
**A.** 2.82 µM

**Q.** `COc1ccc(CC(=O)Nc2cccc(S(=O)(=O)N3CCCCCC3)c2)cc1OC` was tested. Which AC50 did it give?
**A.** 10 µM

**Q.** Which AC50 does the source give for `COc1ccc(CNC[C@@H](CCCCN(C)Cc2ccc(OC)cc2)N2C[C@H](c3ccccc3)N(CCc3ccc(Cl)c(Cl)c3)C(=O)C2=O)cc1` here?
**A.** 7.17 µM

**Q.** With `COc1ccc2c(c1)C(=O)[C@@H](O)[C@H](c1ccc(OC)c(Br)c1)O2` as the compound, how does the AC50 read?
**A.** 10.4 µM

**Q.** For `CCCCCCSc1cc(-c2nc3ccc(C)cn3c2NCCCC)ccc1OC`, which AC50 is on record?
**A.** 6.79 µM

**Q.** Which AC50 does the source give for `CC1=NN(c2nc3ccccc3[nH]2)C(=O)C1Cc1ccccc1` (configuration not stated) here?
**A.** 2.1 µM

**Q.** For `O=C(NC(Nc1nc2ccc([N+](=O)[O-])cc2s1)(C(F)(F)F)C(F)(F)F)c1cccnc1`, which AC50 is on record?
**A.** 2.58 µM

**Q.** How did the AC50 turn out when `CCOC(=O)c1ccc(-[n+]2c(-c3ccccc3)cc(-c3ccccc3)cc2-c2ccccc2)cc1` was run?
**A.** 2.27 µM

**Q.** `CCCCNc1cc(C)nc(NCc2ccccc2)n1` was tested. Which AC50 did it give?
**A.** 8.1 µM

**Q.** Which AC50 does the source give for `NC(=NCCCCCCN=C(N)/N=C(\N)Nc1ccc(Cl)cc1)/N=C(\N)Nc1ccc(Cl)cc1` here?
**A.** 5 µM and 5.71 µM

**Q.** With `Cc1ccc(N=Nc2c(O)ccc3n[nH]nc23)cc1` as the compound, how does the AC50 read?
**A.** 4.37 µM

**Q.** `Cn1nc(C(C)(C)C)cc1C(=O)NCc1ccc(N2CCCC2=O)cc1` was tested. Which AC50 did it give?
**A.** 5.65 µM

**Q.** With `Cc1ccc(C)c(NC(=O)/C(C#N)=C/c2cn(CC(=O)NCc3ccco3)c3ccccc23)c1` as the compound, how does the AC50 read?
**A.** 5.47 µM

**Q.** Which AC50 does the source give for `COc1ccc(NS(=O)(=O)c2ccc(-c3coc(C)n3)cc2)cc1OC` here?
**A.** 4.39 µM

**Q.** With `CCCC(=O)NC(c1ccc(OC)c(OC)c1)c1cc(Cl)c2cccnc2c1O` (configuration not stated) as the compound, how does the AC50 read?
**A.** 7.47 µM

**Q.** With `CC1(C)Cc2c(c(N3CCOCC3)nc3sc4c(NN)ncnc4c23)CS1` as the compound, how does the AC50 read?
**A.** 6.38 µM

**Q.** For `CC(=O)c1cccc(NS(=O)(=O)c2ccc(N/C=C\C(=O)c3ccc(F)cc3)cc2)c1`, which AC50 is on record?
**A.** 4.97 µM

**Q.** Which AC50 does the source give for `O=C(Nc1nc(-c2ccccn2)cs1)c1cc(Cl)ccc1[N+](=O)[O-]` here?
**A.** 4.6 µM

**Q.** Which AC50 does the source give for `CC1=NOC(=O)/C1=C/c1ccc(-c2ccc(Cl)cc2)o1` here?
**A.** 7 µM

**Q.** With `NNc1ncnc2scc(-c3ccc(Cl)cc3)c12` as the compound, how does the AC50 read?
**A.** 14.5 µM

**Q.** For `Oc1ccccc1/C=N/Nc1ncc(Br)cn1`, which AC50 is on record?
**A.** 19.7 µM

**Q.** With `COc1ccc(C2C(O)C(c3c[nH]c4ccccc34)=NN2C(=O)CCl)cc1` (configuration not stated) as the compound, how does the AC50 read?
**A.** 2.9 µM

**Q.** `O=C(/C(=C/c1cccc(Cl)c1)c1nc2ccccc2[nH]1)c1ccccc1` was tested. Which AC50 did it give?
**A.** 4.36 µM

**Q.** `CCc1ccc(S(=O)(=O)/N=C2\C=C(Nc3ccc(O)cc3)C(=O)c3ccccc32)cc1` was tested. Which AC50 did it give?
**A.** 2.21 µM

**Q.** With `O=C(Cc1ccccc1)N/N=C/c1ccc([N+](=O)[O-])s1` as the compound, how does the AC50 read?
**A.** 7.26 µM
